Measurements as given in patent US11331369B2, “Endoparasitic depsipeptides” (Zoetis Services LLC, priority 2017, dated 2022).

Key:
Type in all cases: cell-based
[1] = test system: 4th stage larvae (L4) of Dirofilaria immitis; assay: Dirofilaria immitis, L4 Stage (DiL4) In Vitro Assay; conditions: Dirofilaria immitis, 72 h, read-out: DiL4 Minimum Effective Dose (MED), approximately 72 hours incubation; L4 larvae assessed for survival or paralysis
[2] = test system: third stage larvae of Haemonchus contortus; assay: Haemonchus contortus L3 (HcL3) Assay; conditions: 96 h, read-out: HcL3 Minimum Effective Dose (MED)
[3] = test system: microfilariae of Dirofilaria immitis; assay: Dirofilaria immitis, Microfilaria (DiMF) In vitro Assay; conditions: 72 h, read-out: DiMF Minimum Effective Dose (MED), approximately 72 hours incubation, microfilariae assessed for survival or paralysis

| SMILES | minimal effective concentration [1] [µM] | minimal effective concentration [2] [µM] | minimal effective concentration [3] [µM] |
| --- | --- | --- | --- |
| CC(C)C[C@H]1C(=O)O[C@H](Cc2ccc(Cn3ccnc3C(F)(F)F)cc2)C(=O)N(C)[C@@H](CC(C)C)C(=O)O[C@H](C)C(=O)N(C)[C@@H](CC(C)C)C(=O)O[C@H](Cc2ccc(Cn3ccnc3C(F)(F)F)cc2)C(=O)N(C)[C@@H](CC(C)C)C(=O)O[C@H](C)C(=O)N1C [Example 6-15, (3S,6R,9S,12R,15S,18R,21S,24R)-3,9,15,21-tetraisobutyl-4,6,10,16,18,22-hexamethyl-12,24-bis(4-((2-(trifluoromethyl)-1H-imidazol-1-yl)methyl)benzyl)-1,7,13,19-tetraoxa-4,10,16,22-tetraazacyclotetracosan-2,5,8,11,14,17,20,23-octaone] | 0.0001 to 0.001 | – | – |
| CC(C)C[C@H]1C(=O)O[C@H](Cc2ccc(Cn3cc(C(C)(C)C)cn3)cc2)C(=O)N(C)[C@@H](CC(C)C)C(=O)O[C@H](C)C(=O)N(C)[C@@H](CC(C)C)C(=O)O[C@H](Cc2ccc(Cn3cccn3)cc2)C(=O)N(C)[C@@H](CC(C)C)C(=O)O[C@H](C)C(=O)N1C [Example 1a-17, (3S,6R,9S,12R,15S,18R,21S,24R)-6-(4-((1H-pyrazol-1-yl)methyl)benzyl)-18-(4-((4-(tert-butyl)-1H-pyrazol-1-yl)methyl)benzyl)-3,9,15,21-tetraisobutyl-4,10,12,16,22,24-hexamethyl-1,7,13,19-tetraoxa-4,10,16,22-tetraazacyclotetracosan-2,5,8,11,14,17,20,23-octaone] | – | 1 to 10 | 0.001 to 0.01 |
| CCc1nc(C)nn1Cc1ccc(C[C@H]2OC(=O)[C@H](CC(C)C)N(C)C(=O)[C@@H](C)OC(=O)[C@H](CC(C)C)N(C)C(=O)[C@@H](Cc3ccc(Cn4nc(C)nc4CC)cc3)OC(=O)[C@H](CC(C)C)N(C)C(=O)[C@@H](C)OC(=O)[C@H](CC(C)C)N(C)C2=O)cc1 [Example 9-59, (3S,6R,9S,12R,15S,18R,21S,24R)-6,18-bis(4-((5-ethyl-3-methyl-1H-1,2,4-triazol-1-yl)methyl)benzyl)-3,9,15,21-tetraisobutyl-4,10,12,16,22,24-hexamethyl-1,7,13,19-tetraoxa-4,10,16,22-tetraazacyclotetracosan-2,5,8,11,14,17,20,23-octaone] | – | 1 to 10 | 0.01 to 0.1 |
| CCc1nccn1Cc1ccc(C[C@H]2OC(=O)[C@H](CC(C)C)N(C)C(=O)[C@@H](C)OC(=O)[C@H](CC(C)C)N(C)C(=O)[C@@H](Cc3ccccc3)OC(=O)[C@H](CC(C)C)N(C)C(=O)[C@@H](C)OC(=O)[C@H](CC(C)C)N(C)C2=O)cc1 [Example 8-4, (3S,6R,9S,12R,15S,18R,21S,24R)-6-benzyl-18-[[4-[(2-ethylimidazol-1-yl)methyl]phenyl]methyl]-3,9,15,21-tetraisobutyl-4,10,12,16,22,24-hexamethyl-1,7,13,19-tetraoxa-4,10,16,22-tetrazacyclotetracosane-2,5,8,11,14,17,20,23-octaone] | – | 1 to 10 | 0.01 to 0.1 |
| CC(C)C[C@H]1C(=O)O[C@H](Cc2ccc(CN3C(=O)CCC3=O)cc2)C(=O)N(C)[C@@H](CC(C)C)C(=O)O[C@H](C)C(=O)N(C)[C@@H](CC(C)C)C(=O)O[C@H](Cc2ccc(CN3C(=O)CCC3=O)cc2)C(=O)N(C)[C@@H](CC(C)C)C(=O)O[C@H](C)C(=O)N1C [Example 9-11, (3S,6R,9S,12R,15S,18R,21S,24R)-6,18-bis(4-((2,5-dioxopyrrolidin-1-yl)methyl)benzyl)-3,9,15,21-tetraisobutyl-4,10,12,16,22,24-hexamethyl-1,7,13,19-tetraoxa-4,10,16,22-tetraazacyclotetracosan-2,5,8,11,14,17,20,23-octaone] | – | 1 to 10 | 0.001 to 0.01 |
| CC(C)C[C@H]1C(=O)O[C@H](Cc2ccc(Cn3ccc(C4CC4)n3)cc2)C(=O)N(C)[C@@H](CC(C)C)C(=O)O[C@H](C)C(=O)N(C)[C@@H](CC(C)C)C(=O)O[C@H](Cc2ccccc2)C(=O)N(C)[C@@H](CC(C)C)C(=O)O[C@H](C)C(=O)N1C [Example 2-74, (3S,6R,9S,12R,15S,18R,21S,24R)-6-benzyl-18-(4-((3-cyclopropyl-1H-pyrazol-1-yl)methyl)benzyl)-3,9,15,21-tetraisobutyl-4,10,12,16,22,24-hexamethyl-1,7,13,19-tetraoxa-4,10,16,22-tetraazacyclotetracosan-2,5,8,11,14,17,20,23-octaone] | – | 1 to 10 | 0.001 to 0.01 |
| CC(C)C[C@H]1C(=O)O[C@H](Cc2ccc(Cn3ncnc3-c3ccccc3)cc2)C(=O)N(C)[C@@H](CC(C)C)C(=O)O[C@H](C)C(=O)N(C)[C@@H](CC(C)C)C(=O)O[C@H](Cc2ccc(Cn3ncnc3-c3ccccc3)cc2)C(=O)N(C)[C@@H](CC(C)C)C(=O)O[C@H](C)C(=O)N1C [Example 9-34, (3S,6R,9S,12R,15S,18R,21S,24R)-3,9,15,21-tetraisobutyl-4,6,10,16,18,22-hexamethyl-12,24-bis(4-((5-phenyl-1H-1,2,4-triazol-1-yl)methyl)benzyl)-1,7,13,19-tetraoxa-4,10,16,22-tetraazacyclotetracosan-2,5,8,11,14,17,20,23-octaone] | – | 1 to 10 | 0.001 to 0.01 |
| CC(C)C[C@H]1C(=O)O[C@H](Cc2ccc(Cn3ccccc3=O)cc2)C(=O)N(C)[C@@H](CC(C)C)C(=O)O[C@H](C)C(=O)N(C)[C@@H](CC(C)C)C(=O)O[C@H](Cc2ccccc2)C(=O)N(C)[C@@H](CC(C)C)C(=O)O[C@H](C)C(=O)N1C [Example 10-17, (3S,6R,9S,12R,15S,18R,21S,24R)-6-benzyl-3,9,15,21-tetraisobutyl-4,10,12,16,22,24-hexamethyl-18-(4-((2-oxopyridin-1 (2H)-yl)methyl)benzyl)-1,7,13,19-tetraoxa-4,10,16,22-tetraazacyclotetracosan-2,5,8,11,14,17,20,23-octaone] | – | 1 to 10 | 0.001 to 0.01 |
| Cc1cnn(Cc2ccc(C[C@H]3OC(=O)[C@H](CC(C)C)N(C)C(=O)[C@@H](C)OC(=O)[C@H](CC(C)C)N(C)C(=O)[C@@H](Cc4ccccc4)OC(=O)[C@H](CC(C)C)N(C)C(=O)[C@@H](C)OC(=O)[C@H](CC(C)C)N(C)C3=O)cc2)c1 [Example 2-2, (3S,6R,9S,12R,15S,18R,21S,24R)-6-benzyl-3,9,15,21-tetraisobutyl-4,10,12,16,22,24-hexamethyl-18-[[4-[(4-methylpyrazol-1-yl)methyl]phenyl]methyl]-1,7,13,19-tetraoxa-4,10,16,22-tetrazacyclotetracosane-2,5,8,11,14,17,20,23-octaone] | – | 1 to 10 | 0.001 to 0.01 |
| CC(C)C[C@H]1C(=O)O[C@H](Cc2ccc(Cn3ccnc3CO)cc2)C(=O)N(C)[C@@H](CC(C)C)C(=O)O[C@H](C)C(=O)N(C)[C@@H](CC(C)C)C(=O)O[C@H](Cc2ccccc2)C(=O)N(C)[C@@H](CC(C)C)C(=O)O[C@H](C)C(=O)N1C [Example 8-13, (3S,6R,9S,12R,15S,18R,21S,24R)-6-benzyl-18-(4-((2-(hydroxymethyl)-1H-imidazol-1-yl)methyl)benzyl)-3,9,15,21-tetraisobutyl-4,10,12,16,22,24-hexamethyl-1,7,13,19-tetraoxa-4,10,16,22-tetraazacyclotetracosan-2,5,8,11,14,17,20,23-octaone] | – | 1 to 10 | 0.001 to 0.01 |
| CC(C)C[C@H]1C(=O)O[C@H](Cc2ccc(CN3CCOC3=O)cc2)C(=O)N(C)[C@@H](CC(C)C)C(=O)O[C@H](C)C(=O)N(C)[C@@H](CC(C)C)C(=O)O[C@H](Cc2ccccc2)C(=O)N(C)[C@@H](CC(C)C)C(=O)O[C@H](C)C(=O)N1C [Example 10-18, (3S,6R,9S,12R,15S,18R,21S,24R)-6-benzyl-3,9,15,21-tetraisobutyl-4,10,12,16,22,24-hexamethyl-18-(4-((2-oxooxazolidin-3-yl)methyl)benzyl)-1,7,13,19-tetraoxa-4,10,16,22-tetraazacyclotetracosan-2,5,8,11,14,17,20,23-octaone] | – | 1 to 10 | 0.01 to 0.1 |
| CC(C)C[C@H]1C(=O)O[C@H](Cc2ccc(Cn3ccnc3C(C)(C)C)cc2)C(=O)N(C)[C@@H](CC(C)C)C(=O)O[C@H](C)C(=O)N(C)[C@@H](CC(C)C)C(=O)O[C@H](Cc2ccccc2)C(=O)N(C)[C@@H](CC(C)C)C(=O)O[C@H](C)C(=O)N1C [Example 8-6, (3S,6R,9S,12R,15S,18R,21S,24R)-6-benzyl-18-[[4-[(2-tert-butylimidazol-1-yl)methyl]phenyl]methyl]-3,9,15,21-tetraisobutyl-4,10,12,16,22,24-hexamethyl-1,7,13,19-tetraoxa-4,10,16,22-tetrazacyclotetracosane-2,5,8,11,14,17,20,23-octaone] | – | 1 to 10 | 0.01 to 0.1 |
| CC(C)C[C@H]1C(=O)O[C@H](Cc2ccc(Cn3nccc3C3(C)CCOCC3)cc2)C(=O)N(C)[C@@H](CC(C)C)C(=O)O[C@H](C)C(=O)N(C)[C@@H](CC(C)C)C(=O)O[C@H](Cc2ccc(Cn3nccc3C3(C)CCOCC3)cc2)C(=O)N(C)[C@@H](CC(C)C)C(=O)O[C@H](C)C(=O)N1C [Example 1b-213, (3S,6R,9S,12R,15S,18R,21S,24R)-3,9,15,21-tetraisobutyl-4,6,10,16,18,22-hexamethyl-12,24-bis(4-((5-(4-methyltetrahydro-2H-pyran-4-yl)-1H-pyrazol-1-yl)methyl)benzyl)-1,7,13,19-tetraoxa-4,10,16,22-tetraazacyclotetracosan-2,5,8,11,14,17,20,23-octaone] | – | 1 to 10 | 0.001 to 0.01 |
